Data taken from publication PMC4979060, “Structural basis of metallo-β-lactamase, serine-β-lactamase and penicillin-binding protein inhibition by cyclic boronates” (Nature Communications, 2016).

What was measured:
NDM-1 = target: T1, NDM-1 (Klebsiella pneumoniae, UniProt C7C422); experiment: Fluorogenic β-lactamase inhibition assay (FC-5 substrate), NDM-1; format: biochemical
T1 construct: made in house; host or cells: E. coli
Method: (§1) Kinetic and inhibition analyses, and ^19F NMR studies[10] against bacterial β-lactamases were performed as described. The FC-5 cephalosporin[9] was used as substrate for BcII, VIM-2, IMP-1, NDM-1, SPM-1, TEM-1 and OXA-10, meropenem[28] for CphA and nitrocefin[34] for PBP 3 and PBP 5.
(§2) In brief IC50 values were determined by preincubation of the appropriate amount of enzyme with the cyclic boronates in the assay buffers for 10 min at room temperature prior to the initiation of the assay by the addition of the appropriate substrate. The enzyme concentrations used are the following: 1 nM BcII, 100 nM VIM-2, 10 nM IMP-1, 10 nM NDM-1, 1 nM SPM-1, 1 nM TEM-1, 1 nM OXA-10, 2.5 nM CphA, 4 μM PBP 3 and 5 μM PBP 5; note that the final concentrations are stated. The assay buffers used are the following: 50 mM HEPES, pH 7.2 supplemented with 1 μg BSA, 1 μg ZnSO4 and 0.01% Triton for BcII, VIM-2, IMP-1, NDM-1 and SPM-1, 15 mM MES, pH 6.5 for CphA, 50 mM HEPES, pH 7.2 supplemented with 200 mM NaCl and 0.01% Triton 100 for TEM-1, 100 mM sodium phosphate, pH 7.2 supplemented with 50 mM NaHCO3 and 0.01% Triton 100 for OXA-10 and 50 mM HEPES, pH 7.2 supplemented with 200 mM NaCl and 0.01% Triton 100 for PBP 3 and PBP 5. The amount of substrates used is the following: 5 μM for BcII, VIM-2, IMP-1, NDM-1 and SPM-1, 10 μM for TEM-1 and OXA-10, 125 μM for CphA and 25 μM for PBP 3 and PBP 5; note that the final concentrations are stated.
(§3) The experiments were performed using a PHERAstar FS microplate reader (BMG Labtech) at room temperature (24–25 °C). All enzymes and inhibitors were prepared in the specific assay buffer. The kinetic values in this study are the means from at least three independent measurements; at least nine different concentrations of the inhibitor were used to determine the kinetic parameters (IC50). The IC50 values were determined using the software package Graph Prism 5.

CphA = target: T2, CphA (Aeromonas hydrophila, UniProt P26918); experiment: B2 MBL inhibition assay (meropenem substrate), CphA; format: biochemical, Aeromonas hydrophilia; settings: for IC50: 10 min preincubation
T2 construct: made in house; host or cells: E. coli
Method: as §1, §2, §3

PBP 3 = target: T3, PBP 3 (Pseudomonas aeruginosa, UniProt G3XD46); experiment: PBP inhibition assay (nitrocefin substrate), PBP 3; format: biochemical; settings: NI = no inhibition at 100 μM, read-out: IC50 (μM)/pIC50 (converted)
T3 construct: made in house; host or cells: E. coli
Method: as §1, §2, §3

SPM-1 = SPM-1 (Pseudomonas aeruginosa, UniProt Q8G9Q0); experiment: Fluorogenic β-lactamase inhibition assay (FC-5 substrate), SPM-1; format: biochemical; settings: for IC50: 10 min preincubation
Method: as §1, §2, §3

VIM-2 = target: T4, VIM-2 (Escherichia coli, UniProt Q5U7L7); experiment: Fluorogenic β-lactamase inhibition assay (FC-5 substrate), VIM-2; format: biochemical; settings: for IC50: 10 min preincubation
T4 construct: made in house; host or cells: E. coli
Method: as §1, §2, §3

OXA-10 = target: T5, OXA-10 (Pseudomonas aeruginosa, UniProt P14489); experiment: Fluorogenic β-lactamase inhibition assay (FC-5 substrate), OXA-10; format: biochemical; settings: for IC50: 10 min preincubation
T5 construct: made in house; host or cells: E. coli
Method: as §1, §2, §3

BcII = target: T6, BcII (Bacillus cereus, UniProt P04190); experiment: Fluorogenic β-lactamase inhibition assay (FC-5 substrate), BcII; format: biochemical; settings: for IC50: 10 min preincubation
T6 construct: made in house; host or cells: E. coli
Method: as §1, §2, §3

TEM-1 = target: T7, TEM-1 (Escherichia coli, UniProt P62593); experiment: Fluorogenic β-lactamase inhibition assay (FC-5 substrate), TEM-1; format: biochemical; settings: for IC50: 10 min preincubation
T7 construct: made in house; host or cells: E. coli
Method: as §1, §2, §3

T6 sequence (P04190 31-257): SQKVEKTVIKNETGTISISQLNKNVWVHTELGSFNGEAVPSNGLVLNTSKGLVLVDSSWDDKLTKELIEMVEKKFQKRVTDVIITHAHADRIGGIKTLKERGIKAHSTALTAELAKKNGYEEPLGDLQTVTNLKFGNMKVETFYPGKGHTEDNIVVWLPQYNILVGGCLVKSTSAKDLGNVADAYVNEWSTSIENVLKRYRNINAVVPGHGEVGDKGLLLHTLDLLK
Chain of SPM-1 (Q8G9Q0 entry or part of it): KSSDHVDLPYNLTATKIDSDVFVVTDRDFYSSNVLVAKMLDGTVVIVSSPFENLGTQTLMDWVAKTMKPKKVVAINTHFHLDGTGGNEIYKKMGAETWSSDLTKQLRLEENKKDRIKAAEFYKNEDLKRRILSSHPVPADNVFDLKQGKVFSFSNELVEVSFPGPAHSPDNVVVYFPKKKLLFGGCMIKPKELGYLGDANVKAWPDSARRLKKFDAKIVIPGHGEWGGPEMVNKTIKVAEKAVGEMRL
T2 sequence (P26918 28-254): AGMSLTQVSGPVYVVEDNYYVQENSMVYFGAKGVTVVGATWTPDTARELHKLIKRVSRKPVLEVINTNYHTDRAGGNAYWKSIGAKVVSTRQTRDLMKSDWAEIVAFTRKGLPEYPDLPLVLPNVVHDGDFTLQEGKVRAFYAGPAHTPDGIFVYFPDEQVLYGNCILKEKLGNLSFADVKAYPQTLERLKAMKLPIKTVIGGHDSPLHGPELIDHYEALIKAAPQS
T5 sequence (P14489 20-266, species assumed): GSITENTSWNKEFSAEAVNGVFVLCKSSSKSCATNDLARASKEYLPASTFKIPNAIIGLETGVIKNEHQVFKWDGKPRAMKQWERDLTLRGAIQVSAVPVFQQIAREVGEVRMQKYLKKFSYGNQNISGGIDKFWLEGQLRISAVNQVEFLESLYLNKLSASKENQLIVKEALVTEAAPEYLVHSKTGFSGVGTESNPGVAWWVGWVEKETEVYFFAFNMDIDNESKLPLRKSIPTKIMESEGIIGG
T7 sequence (P62593 24-286 limits assumed): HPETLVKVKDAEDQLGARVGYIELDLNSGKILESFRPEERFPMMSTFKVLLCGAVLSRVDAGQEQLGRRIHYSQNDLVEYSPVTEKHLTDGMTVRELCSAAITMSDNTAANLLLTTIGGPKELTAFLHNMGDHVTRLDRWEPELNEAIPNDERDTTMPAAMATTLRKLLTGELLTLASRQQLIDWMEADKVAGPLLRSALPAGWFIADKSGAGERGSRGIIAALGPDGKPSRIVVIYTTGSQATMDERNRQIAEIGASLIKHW
T3 sequence (G3XD46 whole entry): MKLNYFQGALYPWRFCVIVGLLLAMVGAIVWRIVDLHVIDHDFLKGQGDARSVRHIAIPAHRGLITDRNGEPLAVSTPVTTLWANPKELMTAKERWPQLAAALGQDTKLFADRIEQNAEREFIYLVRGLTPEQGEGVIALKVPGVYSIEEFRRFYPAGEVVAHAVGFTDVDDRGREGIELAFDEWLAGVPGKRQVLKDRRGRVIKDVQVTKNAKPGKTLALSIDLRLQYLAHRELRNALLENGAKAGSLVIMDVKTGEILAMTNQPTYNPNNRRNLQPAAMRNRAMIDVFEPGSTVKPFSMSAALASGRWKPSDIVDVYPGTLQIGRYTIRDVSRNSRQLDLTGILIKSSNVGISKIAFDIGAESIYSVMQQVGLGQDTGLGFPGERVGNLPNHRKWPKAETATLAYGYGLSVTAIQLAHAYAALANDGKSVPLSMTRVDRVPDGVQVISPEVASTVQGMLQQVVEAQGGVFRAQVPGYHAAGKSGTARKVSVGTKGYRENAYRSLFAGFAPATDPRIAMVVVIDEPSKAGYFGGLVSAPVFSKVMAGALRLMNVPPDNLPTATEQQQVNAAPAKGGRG
T1 sequence (C7C422 29-270, looked up, species assumed): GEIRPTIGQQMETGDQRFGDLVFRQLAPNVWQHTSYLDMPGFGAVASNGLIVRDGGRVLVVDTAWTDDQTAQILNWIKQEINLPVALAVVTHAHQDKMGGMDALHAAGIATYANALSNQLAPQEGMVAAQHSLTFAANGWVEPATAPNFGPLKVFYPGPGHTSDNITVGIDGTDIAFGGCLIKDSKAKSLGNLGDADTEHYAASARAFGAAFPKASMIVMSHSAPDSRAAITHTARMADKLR

SMILES	pIC50 (NDM-1)	IC50 (NDM-1; 10 min preincubation) [nM]	pIC50 (CphA)	IC50 (CphA) [nM]	IC50 (PBP 3) [µM]	pIC50 (SPM-1)	IC50 (SPM-1) [nM]	pIC50 (VIM-2)	IC50 (VIM-2) [nM]	pIC50 (OXA-10)	IC50 (OXA-10) [nM]	pIC50 (BcII)	IC50 (BcII) [nM]	pIC50 (TEM-1)	IC50 (TEM-1) [nM]
NCC1CCC(C(=O)N[C@H]2Cc3cccc(C(=O)O)c3O[B-]2(O)O)CC1 (stereo partly drawn) [compound 3]	6.1	687	4.68	20800	> 100	4.8	16000	7.9	11	6.0	830	6.0	960	8.5	2
NCCNCc1ccc(C(=O)N[C@H]2Cc3cccc(C(=O)O)c3O[B-]2(O)O)cc1 [compound 5]			> 4	> 100000	> 100	4.4	36300		2	4.9	12700	5.9	1140	8.1	6
